{"source": "patent US7700560B2", "about": "(University of Maryland, Baltimore County, priority 2003, dated 2010)", "origin": "cited, not measured here", "key": {"[1]": {"tested_on": "lung tumor cell lines NCI-H460, NCI-H226, A549, NCI-H23, DMS273, DMS114, NCI-H522", "conditions": "dicyclopentyl diester; cited from earlier work"}, "[2]": {"tested_on": "DMS114 lung and DU145 prostate xenografts", "conditions": "dicyclopentyl diester; cited from earlier work"}}, "data": [{"smiles": "NC(CCC(=O)NC(CSCc1ccc(Br)cc1)C(=O)NCC(=O)OC1CCCC1)C(=O)OC1CCCC1", "note": "(centres unmarked)", "values": [{"measurement": "inhibition of lung tumor cell lines in vitro", "setting": "[1]", "result": "effectively inhibited"}, {"measurement": "inhibition of DMS144 and human prostate DU145 xenografts in nude mice", "setting": "[2]", "result": "effectively inhibited"}]}]}
